Experimental data as given in patent publication EP4410284A1, “COMPOUND AND METHOD FOR THE TREATMENT OF ZELLWEGER SPECTRUM DISORDER” (Apteeus, priority 2023, dated 2024).
Like-named read-outs stand apart in the source and are kept apart here.

Key:
GM16513 cells [1] = assay: Catalase import immunofluorescence, high-content screening (% importing cells); assay type: cell-based, human; conditions: GM16513 cells, 3 days
PEX405 cells [2] = assay: as above; assay type: cell-based, human; conditions: PEX405 cells, 3 days
GM16513 cells [3] = assay type: cell-based; conditions: 3 days, PI positive cells (dead cells)
PEX405 cells [4] = assay type: cell-based; conditions: 3 days, PI positive cells (dead cells)

Molecule | % Importing cells (GM16513 cells [1]; 1.3 µM) [%] | % Importing cells (GM16513 cells [1]; 10 µM) [%] | % Importing cells (PEX405 cells [2]; 1.3 µM) [%] | % Importing cells (PEX405 cells [2]; 10 µM) [%] | % PI+ cells (GM16513 cells [3]; 1.3 µM) [%] | % PI+ cells (GM16513 cells [3]; 10 µM) [%] | % PI+ cells (PEX405 cells [4]; 1.3 µM) [%] | % PI+ cells (PEX405 cells [4]; 10 µM) [%]
COc1cc(C=CC(=O)O)cc(OC)c1O (stereo in doubt) [Sinapinic acid] | 21 | 18 | 3 | 3 | – | – | – | –
O=C(NO)c1cccc2ccccc12 [1-Naphthohydroxamic acid] | 12 | 13 | 3 | 2 | 1 | 1 | 0 | 0
O=C(NO)c1cnc(NC2(c3ccccc3)CC2)nc1 [ACY-738] | 31 | 85 | 5 | 31 | 1 | 3 | 1 | 1
O=C(NO)c1cnc(NC2(c3cccc(F)c3)CCCCC2)nc1 [ACY-775] | 21 | 47 | 4 | 9 | 2 | 2 | 0 | 1
Nc1ccc(-c2cccs2)cc1NC(=O)c1ccc2nc(N3CCNCC3)ccc2c1 [ACY-957] | 74 | 0 | 16 | 13 | 1 | 38 | 1 | 55
CC(C)(C)c1ccc(C(=O)Nc2ccc(C(=O)NO)cc2)cc1 [AES-350] | 22 | 45 | 5 | 10 | 2 | 5 | 1 | 1
CC(=O)N[C@@H](CCCCN)C(=O)Nc1ccc2c(C)cc(=O)oc2c1 [Ac-Lys-AMC] | 18 | 14 | 3 | 1 | 1 | 1 | 0 | 0
O=C(NO)C(c1ccc(-c2ncc(C(F)(F)F)cn2)cc1)c1ccccc1F (centres unmarked) [CHDI-390576] | 10 | 4 | 2 | 0 | – | – | – | –
Cc1nn(C)cc1CN1CCC(c2ccc(C(=O)Nc3ccccc3N)cc2)CC1 [CXD101] | – | – | 19 | 4 | 2 | 7 | 0 | 8
Cc1ccc(C(=O)NCCCCCC(=O)Nc2ccccc2N)cc1 [RG2833] | – | – | – | – | 1 | 3 | – | –
Oxamflatin | 99 | 59 | 33 | 15 | – | – | – | –
